Results as given in US9474749B2 (priority 2004, dated 2016).

Assays:
[1] = system: human white blood cells / PMNs; assay: Morphine production by human WBC and PMNs (HPLC, RIA); format: cell-based; conditions: for WBC morphine concentrations versus untreated cells: P<0.001; for Morphine levels in media after the cells were removed: PMNs 3×10^6 cells, THP 100 μg, reticuline 50 μg, L-DOPA 100 μg, L-tyrosine 100 μg; for morphine concentrations in WBC: one-hour treatment, control 12.33±5.64
[2] = system: Mytilus edulis pedal ganglia; assay: Ganglionic morphine levels after injection into the foot of intact animals; conditions: for ganglionic morphine levels after injection: 10^−5 M in the foot, one hour, controls 1.02±0.24; for decrease in ganglionic morphine levels when the respective enzyme inhibitor was topically applied: AMPT or quinidine 10^−4 M on pedal ganglia after amino acid injection; for morphine levels after injection of inhibitor alone: 10^−4 M via the foot; for pedal ganglionic morphine levels after injection: one hour after injection into the foot
Experimental: For in vivo precursor injection experiments, the animal's foot was injected with either reticuline or L-DOPA (0.1 and 1 μg/injection, respectively). Chemicals were injected by BD 1 cc syringes with 26 G needles. Each needle was inserted into that base of the foot just above the pedal ganglia.
(§1) For in vivo treatments, the animal's foot (20 animals per treatment) was injected with tyrosine (10^−5 M), tyramine (10^−5 M), or saline. Other animals were exposed to the enzyme inhibitors AMPT or quinidine alone or immediately following the respective foot injection. […] All chemicals were purchased from Sigma (St. Louis, Mo.).

[3] = system: Mytilus edulis ganglia and hemolymph; assay: Dopamine levels in ganglia and hemolymph (HPLC UV)
Experimental: Mytilus edulis collected from the local waters of Long Island Sound were maintained as described herein. […] The pedal ganglia were incubated with and without tyrosine or tyramine in the presence of quinidine, a CYP2D6 inhibitor, and alpha methyl para tyrosine (AMPT), which inhibits tyrosine hydroxylase.
as §1
After ganglionic dissection, ganglia were pooled into one eppendorf tube, 1 ml of 1 N HCl was added, and the tissue was sonicated by sonic dismemberator (Fisher scientific, USA). Homogenized tissue was then transferred to a 15 mL polypropylene centrifuge tube (Fisher Scientific, PA, USA). 5 mL of chloroform/isopropanol (9:1, v/v) was added, and the contents of the tube vigorously vortexed for 5 minutes at room temperature. […] Supernatant (water soluble layer) was dispatched into pre-siliconized 1.5 tubes (Midwest Scientific) and kept at 4° C. for immediate use for HPLC determination or stored at −80° C. for further analysis.

[4] = system: Mytilus edulis pedal ganglia; assay: Endogenous morphine levels in excised pedal ganglia incubated in vitro (HPLC, RIA); format: cell-based; conditions: for ganglionic morphine levels after in vitro incubation: ganglionic wet weight, before: 1.08±0.27 (tyramine), 0.96±0.31 (tyrosine); for share of added precursor converted to morphine: in vitro ganglia incubation; for ganglionic morphine levels after exposure: 10^−6 M (FIG. 20); for effect of enzyme inhibitor on precursor-induced morphine production: quinidine with tyramine, AMPT with tyrosine, concentration dependent; for ganglionic morphine levels versus control: 50 and 100 ng, 60 minutes; for ganglionic morphine levels versus control / morphine per ganglion wet weight: in vitro; for morphine in ganglia: 10 μg of each compound, control 11.9; for morphine per ganglion wet weight: 5-hydroxytryptophan 1 μg/gm tissue, vehicle 2.1±0.44
PMNs = assay: PMN activation level by computer-assisted image analysis (form factor); conditions: for level of PMN activation: IL-1β 2 ng/mL one hour, L-DOPA 10^−6 M, untreated 7.3±2.1%
Experimental: The morphological measurements of PMNs were based on cell area and perimeter determinations by the use of image analysis software (Compix, Mars, Pa.). […] The observational area used for measurement determinations and frame-grabbing was 0.4 μm in diameter.
After this incubation, the PMNs were evaluated for their activity level via computer-assisted image analysis.

## NCCc1ccc(O)cc1 [Tyramine, tyramine]
[1]
  WBC morphine concentrations versus untreated cells: significantly increased WBC morphine concentrations
[2]
  ganglionic morphine levels after injection: 3.28±0.45 ng/g wet weight
  decrease in ganglionic morphine levels when the respective enzyme inhibitor was topically applied: 25%
[3]; from 4.98±0.27
  ganglionic DA level after tyramine injection: 9.17±1.21 μg/g wet weight
[3]; from 10.13±1.24
  hemolymph DA level after tyramine: 16.47 ± 1.28 µg/mL
[3]; tyramine 100 μg/mL incubation, PBS 10.13±0.34
  hemolymph DA (FIG. 19 legend): 16.47±2.28 μg of DA/mL
[3]; tyramine injection 100 μg/animal, PBS 4.78±0.27
  ganglia DA (FIG. 19 legend): 9.17±1.21 μg of DA/g
[4]
  ganglionic morphine levels after in vitro incubation: 2.51 ± 0.36 ng/g
  share of added precursor converted to morphine: About 7%

## COc1ccc2c3c1O[C@H]1[C@@H](O)C=C[C@H]4[C@@H](C2)N(C)CC[C@@]341 [codeine]
[4]
  ganglionic morphine levels after exposure: significantly enhanced morphine levels

## CC(N)(Cc1ccc(O)cc1)C(=O)O (stereo not drawn) [AMPT, alpha-methyl-para-tyrosine]
[2]
  morphine levels after injection of inhibitor alone: did not exhibit any change in morphine levels
[4]
  effect of enzyme inhibitor on precursor-induced morphine production: less tyrosine-induced morphine production

## N[C@@H](Cc1ccc(O)cc1)C(=O)O [L-tyrosine]
[1]
  Morphine levels in media after the cells were removed: 2.223 ± 0.38
[2]
  ganglionic morphine levels after injection: 2.46±0.22 ng/g wet weight
  decrease in ganglionic morphine levels when the respective enzyme inhibitor was topically applied: 30%
[4]
  ganglionic morphine levels after in vitro incubation: 2.39 ± 0.64 ng/g
  share of added precursor converted to morphine: About 7%

## CCc1cccc2cc(C(O)CNC(C)(C)C)oc12 (stereo not drawn) [bufuralol]
[1]
  effect on precursor-induced morphine synthesis in PMNs: significantly diminished synthesis of morphine

## Oc1ccc(CC2NCCc3cc(O)c(O)cc32)cc1O (stereo not drawn) [THP, norlaudanosoline]
[1]
  WBC morphine concentrations versus untreated cells: significantly increased WBC morphine concentrations
  Morphine levels in media after the cells were removed: 2.028 ± 0.42
  morphine concentrations in WBC: 90.25±10.42 pg/million cells
[4]
  ganglionic morphine levels after exposure: significantly enhanced morphine levels
  ganglionic morphine levels versus control: significantly higher
  share of added precursor converted to morphine: About 20%

## N[C@@H](Cc1ccc(O)c(O)c1)C(=O)O [L-DOPA]
[1]
  WBC morphine concentrations versus untreated cells: significantly increased WBC morphine concentrations
  Morphine levels in media after the cells were removed: 1.234 ± 0.26
  morphine concentrations in WBC: 136.5±12.43 pg/million cells
[2]
  pedal ganglionic morphine levels after injection: significantly increased pedal ganglionic morphine levels
PMNs
  level of PMN activation: 3.7±0.4%
PMNs; L-DOPA treated and IL-1β treated PMNs mixed 1:1
  percent of activated cells in mixed PMN population: 12.5±3.7%
[4]
  morphine in ganglia: 9.31 ng/mL
  ganglionic morphine levels versus control: significantly higher
  morphine per ganglion wet weight: 3.6±0.45 ng morphine per ganglion

## IL-1β: cytokine used to activate PMNs
PMNs
  level of PMN activation: 43.4±5.7%

## NCCc1ccc(O)c(O)c1 [dopamine]
[4]
  morphine in ganglia: 8.82 ng/mL
  ganglionic morphine levels after exposure: significantly enhanced morphine levels

## N[C@@H](Cc1c[nH]c2ccc(O)cc12)C(=O)O [5-hydroxytryptophan]
[2]
  pedal ganglionic morphine levels after injection: failed to increase ganglionic morphine levels
[4]
  morphine per ganglion wet weight: 2.1±0.41 ng morphine per ganglion

## C=C[C@H]1C[N@@]2CC[C@H]1C[C@@H]2[C@@H](O)c1ccnc2ccc(OC)cc12 [quinidine]
[1]
  effect on precursor-induced morphine synthesis in PMNs: blocked morphine synthesis
[2]
  morphine levels after injection of inhibitor alone: did not exhibit any change in morphine levels
[3]; 100 μg/animal
  ganglia DA, tyramine and quinidine injections (FIG. 19 legend): 2.57±0.32 μg of DA/g
[3]; ganglionic and hemolymph
  effect of quinidine on tyramine-induced DA level increases: blocked by quinidine exposure
[3]; tyramine 100 μg/mL, quinidine 10 μg/mL
  hemolymph DA, tyramine and quinidine exposure (FIG. 19 legend): 10.24 μg of DA/mL
[4]; quinidine 10^−6 M
  effect of quinidine on morphine increase by THP, reticuline, DA, or codeine: significantly blocked by quinidine exposure
[4]
  effect of enzyme inhibitor on precursor-induced morphine production: less tyramine-induced morphine production
